Experimental data taken from ChEMBL document CHEMBL4308851, “Alkyl-guanidine Compounds as Potent Broad-Spectrum Antibacterial Agents: Chemical Library Extension and Biological Characterization” (J Med Chem, 2018).
≈ marks a conversion by molar mass, not a printed value. Calls of active or inactive are those of the source. No cut-off for these calls is given here.

How the values were obtained:
[1] = tested on: Bacillus spizizenii; assay: Antibacterial activity against Bacillus subtilis ATCC 6633 after 18 hrs by microdilution broth method; type: functional; settings: ATCC 6633, 18 h
[2] = tested on: Enterococcus faecalis; assay: Antibacterial activity against Enterococcus faecalis ATCC 19433 after 18 hrs by microdilution broth method; type: functional; settings: ATCC 19433, 18 h
[3] = tested on: Staphylococcus aureus; assay: Antibacterial activity against Staphylococcus aureus ATCC 25923 after 18 hrs by microdilution broth method; type: functional; settings: ATCC 25923, 18 h
[4] = tested on: Streptococcus pyogenes; assay: Antibacterial activity against Streptococcus pyogenes ATCC 12344 after 18 hrs by microdilution broth method; type: functional; settings: ATCC 12344, 18 h
[5] = tested on: Acinetobacter baumannii; assay: Antibacterial activity against Acinetobacter baumannii ATCC 17978 after 18 hrs by microdilution broth method; type: functional; settings: ATCC 17978, 18 h
[6] = tested on: Klebsiella pneumoniae; assay: Antibacterial activity against Klebsiella pneumoniae ATCC […] after 18 hrs by microdilution broth method; type: functional
[7] = tested on: Pseudomonas aeruginosa; assay: Antibacterial activity against Pseudomonas aeruginosa ATCC 27853 after 18 hrs by microdilution broth method; type: functional; settings: ATCC 27853, 18 h
[8] = tested on: Escherichia coli; assay: Disruption of inner membrane integrity in Escherichia coli MG1655 assessed as induction of […] conversion at 256 ug/ml measured at 10 mins intervals for 1 hr; type: functional, organism-based; settings: K-12 substr. MG1655
[9] = tested on: Pseudomonas aeruginosa; assay: Disruption of inner membrane integrity in Pseudomonas aeruginosa PAO1 ATCC 15692 co-expressing pMP2200::PrrnB plasmid assessed as induction of OPNG conversion at 256 ug/ml measured at 10 mins intervals for 1 hr; type: functional, organism-based
[10] = tested on: Acinetobacter baumannii; assay: Disruption of inner membrane integrity in Acinetobacter baumannii ATCC 19606 co-expressing pMP2200::PrrnB plasmid assessed as induction of […] conversion at 256 ug/ml measured at 10 mins intervals for 1 hr; type: functional, organism-based; settings: ATCC 19606 = CIP 70.34 = JCM 6841
[11] = tested on: Escherichia coli; assay: Disruption of Escherichia coli MG1655 ATCC 47076 outer membrane integrity assessed as induction of NPN uptake after 30 mins by NPN fluorescence-based assay; type: functional, organism-based; settings: K-12 substr. MG1655 ATCC 47076
[12] = tested on: Pseudomonas aeruginosa; assay: Disruption of Pseudomonas aeruginosa PAO1 ATCC 15692 outer membrane integrity assessed as induction of NPN uptake after 30 mins by NPN fluorescence-based assay; type: functional, organism-based
[13] = tested on: Acinetobacter baumannii; assay: Disruption of Acinetobacter baumannii ATCC 19606 outer membrane integrity assessed as induction of NPN uptake after 30 mins by NPN fluorescence-based assay; type: functional, organism-based; settings: ATCC 19606 = CIP 70.34 = JCM 6841
[14] = tested on: Escherichia coli; assay: Antibiofilm activity against Escherichia coli MG1655 ATCC 47076 at half MIC concentration after 24 hrs by crystal violet-based assay; type: functional, organism-based; settings: K-12 substr. MG1655 ATCC 47076
[15] = tested on: Pseudomonas aeruginosa; assay: Antibiofilm activity against Pseudomonas aeruginosa PAO1 ATCC 15692 at half MIC concentration after 24 hrs by crystal violet-based assay; type: functional, organism-based
[16] = tested on: Acinetobacter baumannii; assay: Antibiofilm activity against Acinetobacter baumannii ATCC 19606 at half MIC concentration after 24 hrs by crystal violet-based assay; type: functional, organism-based; settings: ATCC 19606 = CIP 70.34 = JCM 6841
[17] = tested on: Escherichia coli; assay: Antibiofilm activity against Escherichia coli MG1655 ATCC 47076 assessed as effect on biofilm 3D structures at half MIC concentration after 24 hrs by AO-staining based confocal microscopy; type: functional, organism-based; settings: K-12 substr. MG1655 ATCC 47076
[18] = tested on: Pseudomonas aeruginosa; assay: Antibiofilm activity against Pseudomonas aeruginosa PAO1 ATCC 15692 assessed as effect on biofilm 3D structures at half MIC concentration after 24 hrs by AO-staining based confocal microscopy; type: functional, organism-based
[19] = tested on: Acinetobacter baumannii; assay: Antibiofilm activity against Acinetobacter baumannii ATCC 19606 assessed as effect on biofilm 3D structures at half MIC concentration after 24 hrs by AO-staining based confocal microscopy; type: functional, organism-based; settings: ATCC 19606 = CIP 70.34 = JCM 6841
[20] = Hemolytic activity against human erythrocytes assessed as induction of hemolysis at 64 ug/ml after 30 mins; type: cell-based, Erythrocyte; settings: read-out: Activity
[21] = tested on: Escherichia coli; assay: Antibacterial activity against Escherichia coli CCUG after 18 hrs by microdilution broth method
[22] = tested on: Acinetobacter baumannii; assay: Antibacterial activity against Acinetobacter baumannii isolate AC-54/97 after 18 hrs by microdilution broth method; type: functional; settings: isolate AC-54/97, 18 h
[23] = tested on: Burkholderia cepacia; assay: Antibacterial activity against Burkholderia cepacia isolate SI-R2 after 18 hrs by microdilution broth method; type: functional; settings: isolate SI-R2, 18 h
[24] = tested on: Enterobacter cloacae; assay: Antibacterial activity against Enterobacter cloacae isolate VA-417/02 after 18 hrs by microdilution broth method; type: functional; settings: isolate VA-417/02, 18 h
[25] = tested on: Klebsiella pneumoniae; assay: Antibacterial activity against Klebsiella pneumoniae isolate SI-081 after 18 hrs by microdilution broth method; type: functional; settings: isolate SI-081, 18 h
[26] = tested on: Stenotrophomonas maltophilia; assay: Antibacterial activity against Stenotrophomonas maltophilia isolate 634/08 after 18 hrs by microdilution broth method; type: functional; settings: isolate 634/08, 18 h

Row | MIC [1] [µg/mL] | MIC [2] [µg/mL] | MIC [3] [µg/mL] | MIC [4] [µg/mL] | MIC [5] [µg/mL] | MIC [6] [µg/mL] | MIC [7] [µg/mL] | MIC [21] [µg/mL] | MIC [23] [µg/mL] | MIC [24] [µg/mL] | MIC [25] [µg/mL] | MIC [26] [µg/mL] | Compound | also measured
1 | 2 (≈ 2.09 µM) | 4 (≈ 4.18 µM) | 8 (≈ 8.35 µM) | 4 (≈ 4.18 µM) | 64 (≈ 66.8 µM) | 8 (≈ 8.35 µM) | 64 (≈ 66.8 µM) | 16 (≈ 16.7 µM) |  |  |  |  | N=C(N)NCCCCCCCCCCN(CCCCCCCCCCNC(=N)NCC1CC1)C(=O)N(CCCCCCCCCCNC(=N)N)CCCCCCCCCCNC(=N)NCC1CC1 | Activity [8]: inactive; Activity [9]: inactive; Activity [10]: inactive; Activity [11]: Dose-dependent effect; Activity [12]: Dose-dependent effect; Activity [13]: Dose-dependent effect; Activity [14]: inactive; Activity [15]: inactive; Activity [16]: inactive; Activity [17]: inactive; Activity [18]: inactive; Activity [19]: inactive; hemolysis at 0.5 h, 64 ug/ml [20]: 41 to 54%
2 | 0.5 (≈ 0.653 µM) | 1 (≈ 1.31 µM) | 0.5 (≈ 0.653 µM) | 0.5 (≈ 0.653 µM) | 8 (≈ 10.5 µM) | 4 (≈ 5.23 µM) | 8 (≈ 10.5 µM) | 1 (≈ 1.31 µM) | 32 (≈ 41.8 µM) | 4 (≈ 5.23 µM) | 8 (≈ 10.5 µM) | 16 (≈ 20.9 µM) | CNC(=N)NCCCCCCCCN(CCCCCCCCNC(=N)N)C(=O)N(CCCCCCCCNC(=N)N)CCCCCCCCNC(=N)NC | MIC [22]: 4 µg/mL (≈ 5.23 µM)
3 | 2 (≈ 2.37 µM) | 8 (≈ 9.46 µM) | 8 (≈ 9.46 µM) | 4 (≈ 4.73 µM) | 16 (≈ 18.9 µM) | 4 (≈ 4.73 µM) | 16 (≈ 18.9 µM) | 4 (≈ 4.73 µM) |  |  |  |  | N=C(N)NCCCCCCCCN(CCCCCCCCNC(=N)N)C(=O)N(CCCCCCCCNC(=N)NCC1CC1)CCCCCCCCNC(=N)NCC1CC1 | 
4 | 2 (≈ 2.18 µM) | 2 (≈ 2.18 µM) | 2 (≈ 2.18 µM) | 2 (≈ 2.18 µM) | 8 (≈ 8.72 µM) | 2 (≈ 2.18 µM) | 16 (≈ 17.4 µM) | 4 (≈ 4.36 µM) | 16 (≈ 17.4 µM) | 4 (≈ 4.36 µM) | 8 (≈ 8.72 µM) | 8 (≈ 8.72 µM) | N=C(N)NCCCCCCCCN(CCCCCCCCNC(=N)NCc1ccccc1)C(=O)N(CCCCCCCCNC(=N)N)CCCCCCCCNC(=N)NCc1ccccc1 | 
5 |  |  |  |  |  |  |  |  |  |  |  |  | CCCCCCCCCCCCOS(=O)(=O)[O-].[Na+] | Activity [8]: Active; Activity [9]: Active; Activity [10]: Active
6 | 16 (≈ 22.6 µM) | 64 (≈ 90.3 µM) | 32 (≈ 45.1 µM) | 4 (≈ 5.64 µM) | 256 (≈ 361 µM) | 128 (≈ 181 µM) | > 256 | 64 (≈ 90.3 µM) |  |  |  |  | CCNC(=N)NCCCCCCN(CCCCCCNC(=N)N)C(=O)N(CCCCCCNC(=N)NCC)CCCCCCNC(=N)NCC | 
7 | 0.5 (≈ 0.589 µM) | 1 (≈ 1.18 µM) | 0.5 (≈ 0.589 µM) | 0.25 (≈ 0.294 µM) | 16 (≈ 18.8 µM) | 4 (≈ 4.71 µM) | 32 (≈ 37.7 µM) | 2 (≈ 2.35 µM) | 32 (≈ 37.7 µM) | 2 (≈ 2.35 µM) | 8 (≈ 9.42 µM) | 32 (≈ 37.7 µM) | CCNC(=N)NCCCCCCCCN(CCCCCCCCNC(=N)NCC)C(=O)N(CCCCCCCCNC(=N)NCC)CCCCCCCCNC(=N)NCC | MIC [22]: 8 µg/mL (≈ 9.42 µM)

Row | Compound | MIC [1] [µg/mL] | MIC [2] [µg/mL] | MIC [3] [µg/mL] | MIC [4] [µg/mL] | MIC [5] [µg/mL] | MIC [6] [µg/mL] | MIC [7] [µg/mL] | MIC [21] [µg/mL] | MIC [23] [µg/mL] | MIC [24] [µg/mL] | MIC [25] [µg/mL] | MIC [26] [µg/mL] | also measured
8 | CCCCCCCCCC(=O)N[C@@H](Cc1c[nH]c2ccccc12)C(=O)N[C@H](CC(N)=O)C(=O)N[C@@H](CC(=O)O)C(=O)N[C@@H]1C(=O)NCC(=O)N[C@@H](CCCN)C(=O)N[C@@H](CC(=O)O)C(=O)N[C@H](C)C(=O)N[C@@H](CC(=O)O)C(=O)NCC(=O)N[C@H](CO)C(=O)N[C@@H]([C@H](C)CC(=O)O)C(=O)N[C@@H](CC(=O)c2ccccc2N)C(=O)O[C@@H]1C | 1 (≈ 0.617 µM) | 1 (≈ 0.617 µM) | 0.5 (≈ 0.309 µM) | 0.12 (≈ 0.074 µM) |  |  |  |  |  |  |  |  | 
9 | CN[C@H](CC(C)C)C(=O)N[C@H]1C(=O)N[C@@H](CC(N)=O)C(=O)N[C@H]2C(=O)N[C@H]3C(=O)N[C@H](C(=O)N[C@H](C(=O)O)c4cc(O)cc(O)c4-c4cc3ccc4O)[C@H](O)c3ccc(c(Cl)c3)Oc3cc2cc(c3O[C@@H]2O[C@H](CO)[C@@H](O)[C@H](O)[C@H]2O[C@H]2C[C@](C)(N)[C@H](O)[C@H](C)O2)Oc2ccc(cc2Cl)[C@H]1O [VANCOMYCIN] | 0.5 (≈ 0.345 µM) | 1 (≈ 0.69 µM) |  |  |  |  |  |  |  |  |  |  | 
